Reference: US9910031B2, “Compositions and methods for modulating c-Rel-dependent cytokine production” (Synta Pharmaceuticals Corporation, priority 2003, dated 2018)

What was measured:
IL-12 p40 mRNA [1] = assay: Northern blot of IL-12 p40 mRNA in IFN-γ/SAC-stimulated human PBMC; type: cell-based; details: hPBMC; for IL-12 p40 mRNA accumulation: 6 h after SAC
Experimental: (§1) Northern blot analysis was performed to examine the mRNA levels of IL-12 p35 and p40. Human PBMC and the human monocyte cell line THP-1 cells were stimulated with IFN-γ/SAC in the presence or absence of Compound 1. Human PBMC were isolated by centrifugation using Ficoll-Paque (Pharmacia Biotech, Uppsala, Sweden) and prepared in RPMI medium supplemented with 10% fetal calf serum (FCS), 100 U/ml penicillin, and 100 μg/ml streptomycin, in a 96-well plate with 5×10^5 cells/well. The cells were then primed with IFN-γ (100 U/ml) and followed by 0.01% SAC or 1 μg/ml LPS, in the presence of different concentrations of Compound 2 or other compounds. The test compounds were prepared in DMSO and the final DMSO concentration was adjusted to 0.25% in all cultures, including the compound-free control. Cell-free supernatants were taken 18 h later for the measurement of cytokines. The THP-1 cells were obtained from American Type Culture Collection (Manassas, Va.) and were cultured in RPMI 1640 (ATCC, Manassas, Va.), supplemented with 10% FCS (ATCC, Manassas, Va.), and 1% penicillin/Streptomycin (Gibco-BRL, New York, N.Y.). Total RNA was isolated and subjected to Northern blot analysis using IL-12 p35 and p40 cDNA probes. We first examined the kinetics of mRNA accumulation in cultures of hPBMC and THP-1 cells primed with IFN-γ followed by SAC stimulation in the presence or absence of 1 μM Compound 1.
We conducted a dose-response study of the inhibitory effects of Compound 1 on IL-12 mRNA expression in IFN-γ/SAC-stimulated hPBMC. Because both IL-12 p35 and p40 mRNA levels were maximal at 6 h after the addition of SAC, this time point was selected for the dose-response analysis.

IL-12 p40 mRNA [2] = assay: Northern blot of IL-12 p40 mRNA in IFN-γ/SAC-stimulated THP-1 cells; type: cell-based, human; details: THP-1, IFN-γ/SAC, 1 μM Compound 1
Experimental: as §1

NFκB = assay: Gel-shift assay of NFκB binding to the IL-12 p40 promoter site, THP-1 nuclear extracts; type: cell-based, human; details: IFN-γ-primed, SAC-stimulated THP-1; 1 μM Compound 1 or 10 mM ASA
Experimental: Nuclear extracts were prepared from IFN-γ-primed THP-1 cells that had been treated with or without SAC and incubated in the presence or absence of 1 μM Compound 1 or 10 mM ASA. Isolation of nuclear extracts was accomplished by first suspending THP-1 cells in 20 volumes of buffer A containing 10 mM KCl, 10 mM HEPES (pH 7.9), 1 mM MgCl2, 1 mM dithiothreitol (DTT), 0.1% Nonidet p40 (NP-40), and 0.5 mM phenylmethylsulfonyl fluoride (PMSF) and then homogenizing and centrifuging at 10,000 rpm at 4° C. for 5 min. Nuclear pellets were then suspended in buffer C containing 400 mM NaCl, 20 mM HEPES pH 7.9), 15 mM MgCl2, 0.2 mM EDTA, 1 mM DTT, 25% glycerol, 1 mM PMSF, and 10 μg of leupeptin, 20 μg of pepstatin, and 10 μg of antipain per ml, incubated for 30 min at 4° C., and centrifuge at 14,000 rpm for […]. The supernatants were dialyzed against buffer D containing 100 mM NaCl, 20 mM HEPES (pH 7.9), 20% glycerol, 1 mM PMSF, and 1 mM DTT.
The extracts obtained from this process were used in gel-shift assays using oligonucleotides containing the NFκB target sequence corresponding to the region −121 to −102 from the transcription initiation site of IL-12 p40 or a mutated NFκB binding site. […] This interaction was specific as it was competed away by an excess of unlabeled probe, but not by a mutated oligonucleotide in which two base-pairs were substituted. […]

ICSBP = assay: Western blot of ICSBP in THP-1 nuclear extracts (Ets-2 DNA element beads); type: cell-based, human
Excerpt: Of the transcription factors that have been analyzed, two factors, ICSBP and c-Rel, seem to be affected by Compound 1/Compound 2 treatment. ICSBP binds indirectly to the Ets-2 site. The primary NFκB trans-activator for IL-12 is the c-Rel/p50 heterodimer. Other dimers (p65/p50 and p50/p50) either lack activity or have inhibitory functions. Thus, c-Rel plays a role in IL-12 transcription as a result of both activation through NFκB and its interaction with ICSBP. […] The membranes were blocked with 5% milk in TBST buffer and then incubated with anti-c-Rel, anti-p65, anti-p50, anti-ICSBP or anti-PU-1 antibody (all the antibodies were purchased from Santa Cruz) at a dilution of 1:500 for 1 h at room temperature or overnight at 4° C. The membranes were washed and incubated with Horseradish Peroxidase-conjugated anti-rabbit IgG or anti-mouse IgG (Amersham, England) at a dilution of 1:2000 at room temperature for 1 h.
The transcription factor ICSBP binds to the Ets-2 element indirectly through binding to PU-1. Nuclear extracts were bound to Ets-2 DNA element beads, the beads isolated to separate bound from free protein, and the proteins analyzed on Western blots using antibodies to either ICSBP or PU-1. Conjugation of Ets-2 DNA to beads was accomplished by the following method. Biotinylated DNA fragment encompassing the IL-12 p40 Ets-2 site (−292 to −196) were synthesized from the 1.3 kb wild-type human IL-12 p40 reporter by PCR using a biotinylated primer as detailed in The Journal of Immunology, 2000, vol 165. pages 271-279. PCR products were purified by the Qiaquick Kit (Qiagen, Chatsworth, Calif.). Two μg of biotinylated DNA were conjugated to 100 μl of streptavidin-hound magnetic beads (Dynabeads, M280, Dynal, Lake Success, N.Y.) in buffer containing 10 mM Tris-HCL, pH 8.0, 1 mM EDTA, 0.1 M NaCl. […] Eluted materials were separated by 10% SDS-PAGE and detected by immunoblot analysis using anti-ICSBP or anti-PU-1 antibody.

Structure (SMILES)	expression of the mRNA for the p40 subunit (IL-12 p40 mRNA [1]; 1 μM Compound 1)	IL-12 p40 mRNA accumulation (IL-12 p40 mRNA [1]; 1 nM)	IL-12 p40 mRNA accumulation (IL-12 p40 mRNA [1]; 10 nM)	expression of the p40 message (IL-12 p40 mRNA [2])	NFκB binding to p40 promoter probe (gel shift) (NFκB)	amount of ICSBP protein in nuclear extracts (FIG. 5) (ICSBP; THP-1 cells)	ICSBP expression (ICSBP)	ICSBP in the nuclei of treated cells (ICSBP)
C(=NNc1nc(OCCc2ccccn2)nc(N2CCOCC2)n1)c1c[nH]c2ccccc12 [Compound 1, N-(1H-indol-3-ylmethylene)-N′-[4-morpholin-4-yl-6-(2-pyridin-2-yl-ethoxy)-[1,3,5]triazin-2-yl]-hydrazine]	reduced significantly but incompletely	barely inhibited	maximum, though still incomplete inhibition	significantly but incompletely reduced	did not show any influence	significant reduction		
Cc1cccc(C=NNc2cc(N3CCOCC3)nc(OCCc3ccccn3)n2)c1 [Compound 2, N-(3-methyl-benzylidene)-N′-[6-morpholin-4-yl-2-(2-pyridin-2-yl-ethoxy)-pyrimidin-4-yl]-hydrazine]							reduced	reduced
